Test [1] deals with full length and Δ7 SMN2 mRNA. The experiment in a line: SMN2 mRNA RT-qPCR splicing assay in animal tissues. In kind it is in vivo. The following applies: C/C-allele SMA mice, brain and muscle, 10 mg/kg oral BID for 10 days, FIG. 6. The method, then:
The reverse transcription-quantitative PCR-based (RT-qPCR) assay is used to quantify the levels of the full length and Δ7 SMN2 mRNA in tissues from mice treated with test compound.
C/C-allele SMA mice are treated by oral gavage two times per day (BID) for 10 days with test compounds re-suspended in 0.5% HPMC and 0.1% Tween-80. Tissue samples were collected and snap frozen for RNA purification.
Tissue samples (20-40 mg) are homogenized in QIAzol Lysis Reagent for 2 minutes at 20 Hz in the TissueLyser II using one stainless steel bead. After addition of chloroform, the homogenate is separated into aqueous and organic phases by centrifugation. RNA partitioned to the upper, aqueous phase is extracted and ethanol is added to provide appropriate binding conditions. The sample is then applied to the RNeasy spin column from the RNeasy Mini Kit, where total RNA binds to the membrane. The RNA is eluted in RNase-free water then stored at −20° C. and subsequently analyzed using the TaqMan RT-qPCR on the 7900HT Thermocycler. Total RNA is diluted ten fold and 2.5 μL, of the diluted sample is added to the TaqMan RT-qPCR mixture.
SMN2 spliced products are identified using the following primers and probes in Table 7. Primer SMN FL Forward B (SEQ ID NO. 7) hybridizes to a nucleotide sequence in exons 7 and 8, primer SMN Δ7 Forward B (SEQ ID NO. 8) hybridizes to a nucleotide sequence in exons 6 and 8, primer SMN Reverse B (SEQ ID NO. 9) hybridizes to a nucleotide sequence in exon 8, probe SMN Probe B (SEQ ID NO. 10) hybridizes to a nucleotide sequence in exon 8. These primers and probe hybridize to nucleotide sequences common to human SMN1 and SMN2 mRNA. Since the SMA patient cells used in Example 5 contain only the SMN2 gene, RT-qPCR can quantify only SMN2 full-length and Δ7 mRNA.
The SMN forward and reverse primers are used at final concentrations of 0.4 μM. The SMN probe is used at a final concentration of 0.15 μM. The SMN-GAPDH Mix (10 μL, total volume) is prepared by combining 5 μL of 2×RT-PCR buffer, 0.4 μL of 25×RT-PCR enzyme mix, 0.5 μL of 20×GAPDH primer-probe mix, 1.505 μL of water, 2.5 μL of RNA solution, 0.04 μL of 100 μM forward primer, 0.04 μL of 100 μM reverse primer, and 0.015 μL of 100 μM SMN probe. […]
The increase of SMN2 FL and decrease in SMN2 Δ7 mRNA relative to those in tissues from animals treated with vehicle control are determined from real-time PCR data using a modified ΔΔCt method (as described in Livak and Schmittgen, Methods, 2001, 25:402-8). The amplification efficiency (E) is calculated from the slope of the amplification curve for SMN2 FL, SMN2 Δ7, and GAPDH individually. The abundances of SMN2 FL, SMN2 Δ7, and GAPDH are then calculated as (1+E)^−Ct, where Ct is the threshold value for each amplicon. […]
On the technique in general: In qPCR the cycle at which signal appears reflects the starting amount.

For test [2], the system named is full length and Δ7 SMN2 mRNA. Kind of test: Endogenous SMN2 mRNA end-point semi-quantitative RT-PCR splicing assay in cultured cells. In kind it is cell-based, human. The settings on record: Type 1 SMA patient fibroblasts (GM03813), increasing concentrations, 24 hr, FIG. 5. The method, then:
The endpoint reverse transcription-PCR splicing assay is used to visualize and quantify the levels of the full length and Δ7 SMN2 mRNA in primary cells and cell lines containing the SMN2 gene treated with a test compound.
GM03813 SMA patient cells (5,000 cells/well) are seeded in 200 μL of cell culture medium (DMEM plus 10% FBS) in 96-well flat-bottom plates and the plate is immediately swirled to ensure proper dispersal of cells, forming an even monolayer of cells. Cells are allowed to attach for at least 4-6 hrs. Test compounds are serially diluted 3.16-fold in 100% DMSO to generate a 7-point concentration curve. A solution of test compound (1 μL, 200× in DMSO) is added to each test well and 1 μL DMSO is added to each control well. The plate is incubated for 24 hrs in a cell culture incubator (37° C., 5% CO2, 100% relative humidity). The cells are then lysed in Cells-To-Ct lysis buffer and the lysate is stored at 80° C.
SMN FL and Δ7 mRNA are identified using the following primers in Table 6. These primers hybridize to a nucleotide sequence in exon 6 (SMN Forward C, SEQ ID NO. 11) (nucleotide 43 to nucleotide 63) and exon 8 (SMN Reverse C, SEQ ID NO. 12) (nucleotide 51 to nucleotide 73) common to human SMN1 and SMN2 mRNA. Since the SMA patient cells used in Example 4 contain only the SMN2 gene, RT-PCR can visualize and quantify only SMN2 full-length and SMN2 Δ7 mRNA.
To synthesize cDNA, 5 μL of lysate, 4 μL of 5× iScript reaction mix, 1 μL of reverse transcriptase, and 10 μL of water are combined and incubated 5 min at 25° C. followed by 30 min at 42° C., followed by 5 min at 85° C. The cDNA solution is stored at −20° C.
To perform endpoint PCR, 5 μL of cDNA, 0.2 μL of 100 μM forward primer, 0.2 μL of 100 μM reverse primer, and 22.5 μL of polymerase super mix are combined in a 96 well semiskirted PCR plate. PCR is carried out at the following temperatures for the indicated time: Step 1: 94° C. (2 min), Step 2: 94° C. (30 sec), Step 3: 55° C. (30 sec), Step 4: 68° C. (1 min), then repeat Steps 2 to 4 for a total of 33 cycles, then hold at 4° C.
10 μL of each PCR sample is electrophoretically separated on a 2% agarose E-gel for 14 minutes stained with double-stranded DNA (dsDNA) staining reagents (e.g., ethidium bromide) and visualized using a gel imager.

Two compounds from patent US9399649B2, “Compounds for treating spinal muscular atrophy” (PTC Therapeutics Inc., priority 2012, dated 2016) can be followed below.

Regarding `Cc1cn2cc(-c3cc4ccc(N5CCN6CCC[C@H]6C5)cc4c(=O)o3)nc2c(C)n1` [Cpd 69, 3-(6,8-dimethylimidazo[1,2-a]pyrazin-2-yl)-7-[(8aS)-hexahydropyrrolo[1,2-a]pyrazin-2(1H)-yl]-1H-isochromen-1-one], in test [1], the “SMN2 FL mRNA in tissues” value was “substantially more SMN2 FL mRNA” and the “SMN2 Δ7 mRNA in tissues” value is on record as “less SMN2 Δ7 mRNA”. Moreover, in test [2], the “SMN2 FL mRNA (gel band)” value was “progressively more SMN2 FL mRNA” and the “SMN2 Δ7 mRNA (gel band)” value is “less SMN2 Δ7 mRNA”.

As for `Cc1cn2cc(-c3cc4ccc(N5CCN(C)CC5)cc4c(=O)o3)nc2c(C)n1` [Cpd 65, 3-(6,8-dimethylimidazo[1,2-a]pyrazin-2-yl)-7-(4-methylpiperazin-1-yl)-1H-isochromen-1-one], in test [1], the “SMN2 FL mRNA in tissues” value was “substantially more SMN2 FL mRNA” and the “SMN2 Δ7 mRNA in tissues” value is on record as “less SMN2 Δ7 mRNA”. In addition, in test [2], the “SMN2 FL mRNA (gel band)” value is on record as “progressively more SMN2 FL mRNA” and the “SMN2 Δ7 mRNA (gel band)” value is on record as “less SMN2 Δ7 mRNA”.
